This assay has as its target T1, human M1 receptor (hCHRM1) (Homo sapiens, UniProt P11229).
T1 construct: expressed in transfected cells; host or cells: CHO-K1
T1 sequence (P11229 1-460): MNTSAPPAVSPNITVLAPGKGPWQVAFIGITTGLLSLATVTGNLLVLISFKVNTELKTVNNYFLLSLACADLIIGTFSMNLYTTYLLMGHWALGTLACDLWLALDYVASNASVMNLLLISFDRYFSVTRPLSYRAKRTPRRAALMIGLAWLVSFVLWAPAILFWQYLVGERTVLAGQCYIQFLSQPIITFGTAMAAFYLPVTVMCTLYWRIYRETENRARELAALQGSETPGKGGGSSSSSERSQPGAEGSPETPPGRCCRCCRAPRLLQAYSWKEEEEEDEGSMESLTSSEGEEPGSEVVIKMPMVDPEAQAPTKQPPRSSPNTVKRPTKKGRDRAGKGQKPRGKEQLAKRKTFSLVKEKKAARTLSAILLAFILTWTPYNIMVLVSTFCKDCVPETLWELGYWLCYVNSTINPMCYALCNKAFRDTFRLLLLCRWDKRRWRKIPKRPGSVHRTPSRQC
The assay can be described thus: Measurement of M1 receptor positive allosteric modulator (M1PAM) activity, calcium fluorescence (FLIPRtetra) in CHO-K1 cells in the presence of acetylcholine at EC20. As to conditions: in the presence of acetylcholine at EC20 (final 0.6 nM), CHO-K1 cells expressing hCHRM1; for EC50: inflection point of M1PAM activity, read-out: IP value; for activity (%) at 10 μM: test compound 10 μM. Type of assay: cell-based. On the procedure:
Measurement of M1 Receptor Positive Allosteric Modulator (M1PAM) Activity
The activity of a test compound in the presence of acetylcholine at EC20 concentration (final concentration 0.6 nM), which affords an action corresponding to 20% of the maximum activity, was measured as PAM activity. The method is as follows. CHO-K1 cells forcibly expressing a human M1 receptor (hCHRM1) were plated on a 384-well black clear bottom plate (BD Falcon) at 5,000 cells/well, and cultured in an incubator at 37° C., 5% CO2 for 1 day. The medium in the cell plate was removed, and assay buffer A (Recording medium (DOJINDO LABORATORIES), 0.1% BSA (Wako Pure Chemical Industries, Ltd.), 2.5 μg/mL Fluo-4 AM (DOJINDO LABORATORIES), 0.08% Pluronic F127 (DOJINDO LABORATORIES), 1.25 mM probenecid (DOJINDO LABORATORIES)) containing a calcium indicator was added at 30 μL/well. The cells were left standing in the incubator at 37° C., 5% CO2 for 30 min, and further left standing at room temperature for 30 min. A test compound prepared by diluting with assay buffer B (HBSS (Invitrogen), 20 mM HEPES (Invitrogen), 0.1% BSA) containing 2.4 nM acetylcholine was added at 10 μL/well, and the fluorescence was measured by FLIPRtetra (Molecular Devices) for 1 min every 1 second. With the definition that the amount of change in the fluorescence on addition of acetylcholine (final concentration 1 μM) is 100% and that on addition of DMSO instead of a test compound is 0%, the activity (%) of the test compound and the inflection point in the concentration-dependent curve of the test compound were calculated as IP values.

Each structure is given as a SMILES string.

Turning to `Cc1nn(C)cc1-c1ccc(CN2Cc3ccnc(Oc4cc(C(C)(C)O)ccc4F)c3C2=O)cc1` [Example 312, 2-(4-(1,3-dimethyl-1H-pyrazol-4-yl)benzyl)-4-(2-fluoro-5-(2-hydroxypropan-2-yl)phenoxy)-1,2-dihydro-3H-pyrrolo[3,4-c]pyridin-3-one], the EC50 amounted to 0.039 µM and the “activity (%) at 10 μM” value amounted to 96%.

On to `Cn1ccc(-c2ccc(CN3Cc4ccnc(Oc5ccc(C(F)(F)F)cc5F)c4C3=O)cc2)n1` [Example 305, 4-(2-fluoro-4-(trifluoromethyl)phenoxy)-2-(4-(1-methyl-1H-pyrazol-3-yl)benzyl)-1,2-dihydro-3H-pyrrolo[3,4-c]pyridin-3-one], for which the EC50 worked out at 0.025 µM and the “activity (%) at 10 μM” value amounted to 94%.

For the molecule `Cn1cc(-c2ccc(CN3Cc4ncnc(Oc5c(F)cc(F)cc5F)c4C3=O)cc2)nn1` [Example 370, 6-(4-(1-methyl-1H-1,2,3-triazol-4-yl)benzyl)-4-(2,4,6-trifluorophenoxy)-6,7-dihydro-5H-pyrrolo[3,4-d]pyrimidin-5-one], the EC50 came out at 0.014 µM and the “activity (%) at 10 μM” value was found to be 97%.

With `Cn1ccc(-c2ccc(CN3Cc4ccnc(OCC5CCCO5)c4C3=O)cc2)n1` (single isomer, unassigned) [Example 246, 2-(4-(1-methyl-1H-pyrazol-3-yl)benzyl)-4-((tetrahydrofuran-2-yl)methoxy)-1,2-dihydro-3H-pyrrolo[3,4-c]pyridin-3-one], the EC50 stood at 0.0094 µM and the “activity (%) at 10 μM” value stood at 100%.

Take `Cc1nn(C)cc1-c1ccc(CN2Cc3ncnc(OC4CCC4)c3C2=O)cc1` [Example 323, 4-(cyclobutyloxy)-6-(4-(1,3-dimethyl-1H-pyrazol-4-yl)benzyl)-6,7-dihydro-5H-pyrrolo[3,4-d]pyrimidin-5-one]: the EC50 was determined as 0.021 µM and the “activity (%) at 10 μM” value was 89%.

For the molecule `Cn1cc(-c2ccc(CN3Cc4ccnc(OC5CCC5)c4C3=O)c(F)c2)nn1` [Example 338, 4-(cyclobutyloxy)-2-(2-fluoro-4-(1-methyl-1H-1,2,3-triazol-4-yl)benzyl)-1,2-dihydro-3H-pyrrolo[3,4-c]pyridin-3-one], the EC50 worked out at 0.019 µM and the “activity (%) at 10 μM” value stood at 98%.

In the case of `Cn1cnc(-c2ccc(CN3Cc4ccnc(Oc5ccc(C(F)(F)F)cc5F)c4C3=O)cc2)c1` [Example 419, 4-(2-fluoro-4-(trifluoromethyl)phenoxy)-2-(4-(1-methyl-1H-imidazol-4-yl)benzyl)-1,2-dihydro-3H-pyrrolo[3,4-c]pyridin-3-one], the EC50 amounted to 0.0073 µM and the “activity (%) at 10 μM” value is 102%.

On to `Cn1cc(-c2ccc(CN3Cc4cccc(OCC5CCCO5)c4C3=O)c(F)c2)nn1` (centres unmarked) [Example 330, 2-(2-fluoro-4-(1-methyl-1H-1,2,3-triazol-4-yl)benzyl)-7-((tetrahydrofuran-2-yl)methoxy)isoindolin-1-one], for which the EC50 is 0.03 µM and the “activity (%) at 10 μM” value is given as 104%.

Consider `Cn1cc(-c2ccc(CN3Cc4ccnc(OCC5CCC5)c4C3=O)c(F)c2)nn1` [Example 263, 4-(cyclobutylmethoxy)-2-(2-fluoro-4-(1-methyl-1H-1,2,3-triazol-4-yl)benzyl)-1,2-dihydro-3H-pyrrolo[3,4-c]pyridin-3-one], for which the EC50 came to 0.041 µM and the “activity (%) at 10 μM” value is 106%.

Turning to `Cc1cc(-c2ccc(CN3Cc4ccnc(Oc5ccc(C(F)(F)F)cc5F)c4C3=O)cc2)cnn1` [Example 303, 4-(2-fluoro-4-(trifluoromethyl)phenoxy)-2-(4-(6-methylpyridazin-4-yl)benzyl)-1,2-dihydro-3H-pyrrolo[3,4-c]pyridin-3-one], the EC50 was determined as 0.0085 µM and the “activity (%) at 10 μM” value was 91%.

As for `Cn1cc(-c2coc(CN3Cc4cccc(Oc5c(F)cccc5C#N)c4C3=O)c2)cn1` [Example 69, 3-fluoro-2-((2-((4-(1-methyl-1H-pyrazol-4-yl)-2-furyl)methyl)-3-oxo-2,3-dihydro-1H-isoindol-4-yl)oxy)benzonitrile], the EC50 was found to be 0.41 µM and the “activity (%) at 10 μM” value is listed as 103%.

In the case of `Cn1cc(-c2ccc(CN3Cc4ccnc(Oc5ccc(C(C)(C)C#N)cc5F)c4C3=O)cc2)cn1` [Example 409, 2-(3-fluoro-4-((2-(4-(1-methyl-1H-pyrazol-4-yl)benzyl)-3-oxo-2,3-dihydro-1H-pyrrolo[3,4-c]pyridin-4-yl)oxy)phenyl)-2-methylpropanenitrile], the EC50 turned out to be 0.0034 µM and the “activity (%) at 10 μM” value came to 96%.

With `O=C1c2c(cccc2O[C@H]2CCCC[C@@H]2O)CN1Cc1cccc(Br)c1` (relative stereo) [Example 48, 2-(3-bromobenzyl)-7-((trans-2-hydroxycyclohexyl)oxy)isoindolin-1-one], the EC50 amounted to 0.36 µM and the “activity (%) at 10 μM” value worked out at 100%.

Consider `C[C@@H](O)[C@@H](C)Oc1nccc2c1C(=O)N(Cc1ccc(F)cc1F)C2` [Example 424, 2-(2,4-difluorobenzyl)-4-(((2R,3R)-3-hydroxybutan-2-yl)oxy)-1,2-dihydro-3H-pyrrolo[3,4-c]pyridin-3-one], for which the EC50 worked out at 0.088 µM and the “activity (%) at 10 μM” value was 106%.

In the case of `CNC(=O)c1ccc(CN2Cc3ccnc(Oc4ccc(C5CC5)cc4F)c3C2=O)cc1` [Example 447, 4-((4-(4-cyclopropyl-2-fluorophenoxy)-3-oxo-1,3-dihydro-2H-pyrrolo[3,4-c]pyridin-2-yl)methyl)-N-methylbenzamide], the EC50 came to 0.0052 µM and the “activity (%) at 10 μM” value was determined as 93%.

For `Cc1cc(-c2ccc(CN3Cc4cccc(O[C@H]5CCC[C@@H]5O)c4C3=O)cc2)ccn1` (relative stereo) [Example 224, 7-((trans-2-hydroxycyclopentyl)oxy)-2-(4-(2-methylpyridin-4-yl)benzyl)isoindolin-1-one], the EC50 was 0.038 µM and the “activity (%) at 10 μM” value is recorded as 107%.

For the molecule `Cn1ccc(-c2ccc(CN3Cc4ncnc(Oc5ccc(C#N)cc5F)c4C3=O)cc2)n1` [Example 371, 3-fluoro-4-((6-(4-(1-methyl-1H-pyrazol-3-yl)benzyl)-5-oxo-6,7-dihydro-5H-pyrrolo[3,4-d]pyrimidin-4-yl)oxy)benzonitrile], the EC50 is 0.013 µM and the “activity (%) at 10 μM” value turned out to be 99%.

Turning to `Cn1cc(-c2ccc(CN3Cc4cccc(Oc5ccc(C(O)C(F)(F)F)cc5F)c4C3=O)nc2)cn1` (centres unmarked) [Example 389, 7-(2-fluoro-4-(2,2,2-trifluoro-1-hydroxyethyl)phenoxy)-2-((5-(1-methyl-1H-pyrazol-4-yl)pyridin-2-yl)methyl)isoindolin-1-one], the EC50 was found to be 0.032 µM and the “activity (%) at 10 μM” value was found to be 93%.

On to `Cc1cc(F)c(Oc2nccc3c2C(=O)N(Cc2ccc(-n4cnc(C)c4)cc2)C3)c(F)c1` [Example 428, 4-(2,6-difluoro-4-methylphenoxy)-2-(4-(4-methyl-1H-imidazol-1-yl)benzyl)-1,2-dihydro-3H-pyrrolo[3,4-c]pyridin-3-one], for which the EC50 is 0.014 µM and the “activity (%) at 10 μM” value is 106%.

On to `O=C1c2c(ccnc2O[C@@H]2CCCC[C@H]2O)CN1Cc1c(F)cc(F)cc1F` (single isomer, unassigned) [Example 315, 4-((trans-2-hydroxycyclohexyl)oxy)-2-(2,4,6-trifluorobenzyl)-1,2-dihydro-3H-pyrrolo[3,4-c]pyridin-3-one], for which the EC50 was 0.0066 µM and the “activity (%) at 10 μM” value amounted to 101%.

On to `Cc1cc(C(F)(F)F)cc(F)c1Oc1nccc2c1C(=O)N(Cc1ccc(-c3ccn(C)n3)cc1)C2` [Example 421, 4-(2-fluoro-6-methyl-4-(trifluoromethyl)phenoxy)-2-(4-(1-methyl-1H-pyrazol-3-yl)benzyl)-1,2-dihydro-3H-pyrrolo[3,4-c]pyridin-3-one], for which the EC50 was 0.039 µM and the “activity (%) at 10 μM” value is 112%.

On to `CCn1cc(-c2ccc(CN3Cc4ccnc(OC5CCC5)c4C3=O)cc2)cn1` [Example 404, 4-(cyclobutyloxy)-2-(4-(1-ethyl-1H-pyrazol-4-yl)benzyl)-1,2-dihydro-3H-pyrrolo[3,4-c]pyridin-3-one], for which the EC50 amounted to 0.053 µM and the “activity (%) at 10 μM” value is listed as 87%.

The record behind these values is US9777005B2 (Takeda Pharmaceutical Company Limited, priority 2012, dated 2017).
